In PubChem BioAssay AID484 (The Scripps Research Institute Molecular Screening Center, 2006):
Active and inactive are the calls of the source. The rule behind the calls is not given here.

What follows are molecules tested against Sphingosine 1-phosphate receptor 3 (Homo sapiens) (UniProt Q99500) (assay: blockade of S1P-driven S1P3 signaling – cell-based, dose response (AID 484)). Conditions: S1P3-expressing cells, antagonist inhibition of S1P response.
Sequence of Sphingosine 1-phosphate receptor 3 (Homo sapiens) (Q99500 whole entry, looked up): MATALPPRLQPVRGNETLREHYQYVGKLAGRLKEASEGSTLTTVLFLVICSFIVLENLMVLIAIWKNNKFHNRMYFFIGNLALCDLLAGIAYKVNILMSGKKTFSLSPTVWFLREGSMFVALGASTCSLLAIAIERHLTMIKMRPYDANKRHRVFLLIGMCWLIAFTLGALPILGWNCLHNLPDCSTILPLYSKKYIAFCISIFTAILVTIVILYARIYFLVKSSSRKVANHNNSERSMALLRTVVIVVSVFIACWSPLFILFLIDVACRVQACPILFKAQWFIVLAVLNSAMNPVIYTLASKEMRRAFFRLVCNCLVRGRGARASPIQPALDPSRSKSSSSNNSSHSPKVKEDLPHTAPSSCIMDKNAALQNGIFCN

| Structure (SMILES) | IC50 |
| --- | --- |
| Cc1ccc(S(=O)(=O)N2CC(=NO)C2)cc1 | > 49.8 µM (inactive) |
| CC(=O)C1=C(C)Nc2ncnn2C1c1ccc(Cl)cc1 (stereo unspecified) | > 49.8 µM (inactive) |
| COc1ccc(OC)c(C2C(C(C)=O)=C(O)C(=O)N2CCC(=O)O)c1 (stereo unspecified) | > 49.8 µM (inactive) |
| COC(=O)C1=C(N)Oc2cc(N(C)C)ccc2C1c1ccccc1OC (stereo unspecified) | > 16.6 µM (inactive) |
| COC(=O)C1=C(N)Oc2cc(C)n(C)c(=O)c2C1c1ccc(Cl)cc1 (stereo unspecified) | > 49.8 µM (inactive) |
| CC1(C)CC(=O)CC(=Nc2ccc(C(=O)O)cc2)C1 | > 49.8 µM (inactive) |
| N#CC1=C(N)Oc2cc3c(cc2C1c1ccc(Cl)cc1)OCO3 (stereo unspecified) | inactive |
| COc1ccc(CC2C(=O)NC(=O)N(c3ccccc3)C2=O)c(OC)c1 (stereo unspecified) | > 49.8 µM (inactive) |
| CN1CCN(C(=O)OC2c3nccnc3C(=O)N2c2ccc(Cl)cn2)CC1 (stereo unspecified) | > 49.8 µM (inactive) |
| O/C(=C\Sc1nnc(Cc2ccccc2)o1)c1ccc(Br)cc1 | > 49.8 µM (inactive) |
| COc1cccc(N2C(=O)C(CC(=O)Nc3ccc(F)cc3)N(C3CCCCC3)C2=O)c1 (stereo unspecified) | > 49.8 µM (inactive) |
